Results from patent US12168781B2, “Production method for T cells or NK cells, medium for culturing T cells or NK cells, method for culturing T cells or NK cells, method for maintaining undifferentiated state of undifferentiated T cells, and growth-accelerating agent for T cells or NK cells” (KIRIN HOLDINGS KABUSHIKI KAISHA, priority 2018, dated 2024).

Experiments:
[1] = system: primary T cells (CD4 T, CD8 T cells); experiment: Proliferation of primary T cells purified from PBMCs; format: cell-based, human; conditions: 1 μM, 6 days, restimulated, further 4 days, FIG. 16
Protocol: The effect of berbamine on proliferation of primary T cells (CD4 T, CD8 T cells) was examined. As a method therefor, CD3 T cells were purified from PBMCs (CTL, Inc.) using Pan T Cell Isolation Kit, human (Miltenyi, 130-096-535). The purified CD3 T cells (20,000 cells/well) were seeded, and berbamine (BBM) at 1 μM or MilliQ water that is a solvent for the compound as a control was added thereto, and the cells were stimulated with CD3/CD28 Dynabeads (60,000 beads/well).
The cells were cultured for 6 days in the same culture medium as in Example 6 and restimulated. After the cells were further cultured for 4 days, the number of viable cells was counted by a trypan blue method and the ratios of CD4-positive cells and CD8-positive cells were analyzed by FACS. […]
After washing, the cells were resuspended in 200 μL/well of the staining solution containing PI. The suspension in an amount of 100 μL/well was analyzed using a BD LSR Fortessa cytometer (BD Bioscience) equipped with HTS, and all cells were recorded.
The value obtained by multiplying the positive rate of CD8(+) or CD4(+) cells in the PI-negative cell population analyzed by FlowJo 9 by the number of viable cells was defined as the number of CD8-positive cells or the number of CD4-positive cells. […]

CD8 T cells = experiment: Engraftment into mice of CD8 T cells cultured with the compound; format: in vivo; conditions: cells cultured 10 days with 1 μM, two weeks after transplantation into NSG mice, FIG. 19(B)
Protocol: The effect of cells cultured with berbamine on engraftment into mice was examined. As a method therefor, CD8 T cells were purified from PBMCs (CTL, Inc.) derived from a healthy subject using CD8 T Cell Isolation Kit, human (Miltenyi, 130-096-495). The purified CD8 T cells (20,000 cells/well) were seeded, and berbamine (BBM) at 1 μM or MilliQ water that is a solvent for the compound as a control was added thereto, and the cells were cultured in the same culture medium by the same stimulation method as in additional Example 6, and the cells cultured for 10 days were used as cells to be transplanted. NSG male mice at 6 to 11 weeks of age (Charles River Japan) were used as experimental animals and transplantation was performed through the tail vein (approximately 4×10^6 cells). Two weeks after the transplantation, the spleen, peripheral blood and bone marrow were collected, and the CD8β and CD45 positive rates were analyzed by FACS. In the FACS, after the spleen and bone marrow were subjected to a homogenization treatment, and the peripheral blood was subjected to a hemolysis treatment, the resulting materials were transferred to a 96-well plate, followed by washing with a staining solution (PBS containing 2% FBS), and then staining with CD8β-PE-cy7 (eBioscience, 25-5273-42) and CD45-APC-Cy7 (BioLegend, 304014). After washing, the cells were resuspended in the staining solution containing PI. An analysis was performed using a BD LSR Fortessa cytometer (BD Bioscience). The positive rate of CD8β(+)CD45(+) cells in the PI-negative cell population analyzed by FlowJo 9 was measured. Note that in a statistical analysis, a Student's t-test was used (*: p<0.05).

## COc1cc2c3cc1Oc1c(OC)c(OC)cc4c1[C@@H](Cc1ccc(O)c(c1)Oc1ccc(cc1)C[C@@H]3N(C)CC2)N(C)CC4 [berbamine]
[1]
  number of CD4-positive cells compared with MilliQ water: significant enhancement of cell proliferation
  number of CD8-positive cells compared with MilliQ water: significant enhancement of cell proliferation
CD8 T cells; bone marrow
  positive rate of CD8β(+)CD45(+) cells (engraftment) compared with cells cultured with MilliQ water: significant engraftment
CD8 T cells; peripheral blood
  positive rate of CD8β(+)CD45(+) cells (engraftment) compared with cells cultured with MilliQ water: significant engraftment
CD8 T cells; spleen
  positive rate of CD8β(+)CD45(+) cells (engraftment) compared with cells cultured with MilliQ water: significant engraftment
